Results reported in patent US5744452A, “γ-L-glutamyl containing immunomodulator compounds and methods therewith” (Wei; Edward T., priority 1995, dated 1998).

How the values were obtained:
[1] = test system: aminopeptidases; assay: Degradation by aminopeptidases; format: in vitro ADME
[2] = test system: patient with sepsis; assay: Case History 2: immunodeficiency caused by sepsis (Patient B); format: in vivo, human
Procedure: Patient B was in the clinic with a diagnosis of sepsis. Immunodeficiency was confirmed by laboratory tests. Bestim was administered in the standard 5 daily intramuscular doses of 0.1 mg.

[3] = test system: viral hepatitis; assay: Clinical trials in viral hepatitis; format: in vivo, human; conditions: trials in progress
[4] = test system: patients with generalized surgical infection; assay: Study in patients with generalized surgical infection; format: in vivo, human; conditions: for Adhesion (%) / Blast transformation PHA / Blast transformation spont / CD3 (%) / CD4 (%) / CD4/CD8 / CD8 (%) / CD16 (%) / CD72 (%) / Chemilumin luminol (induced) / Chemilumin luminol (spontaneous) / IL-1 production LPS induced / IL-1 production spontaneous / IgA / IgG / IgM / NBT test induced / NBT test spontaneous / TNF production spontaneous / TNF prpoduction LPS induced: surgical infection; for Alanine aminotransferase / Albumin / Asparagine aminotransferase / Band neutrophils (%) / Bilirubin / Creatinin / Hemoglobin / Mature neutrophils (%) / Monocytes (%) / Plasma protein / Urea: surgical patients
Procedure: Preliminary studies were conducted to characterize the immunomodulatory properties of Bestim in human subjects. The protocol for the human subjects studies were reviewed and approved by a Hospital Committee (Moscow Hospital N-24) and informed consent was obtained from all subjects. All 62 patients received by intramuscular injection 0.1 mg of Bestim dissolved in 1.5 to 2.0 ml of sterile saline, one injection per day for 5 days. Patients participating in the clinical trials were from 2 groups:
The second group consisted of 28 patients with generalized surgical infection. Bestim was given together with standard antibiotic therapy.
Laboratory measurements (data in Table 8 to 10) were performed one day before and compared to values obtained three days after injection of Bestim.

[5] = test system: murine thymocytes; assay: Murine thymocyte differentiation after intraperitoneal injection; format: in vivo, CBA mice; conditions: for Percent of thymocytes expressing L3T4 / Percent of thymocytes expressing Lyt2 / Percent of thymocytes expressing Thy-1: 24 hours
Procedure: Bestim was injected into 3-month old CBA mice at doses ranging from 10 ng/kg to 100 μg/kg intraperitoneally. Mice were killed by cervical dislocation 24 hours after injection, the thymus gland removed, and the cells isolated by centrifugation and washed in RPMI-1640 medium. Expression of surface differentiation antigens were measured using monoclonal antibodies to L3T4 (T-helper marker), Lyt 2 (T-cytotoxic marker) and Thy-1 (common T-lymphocyte marker) molecules in a cytotoxicity assay using complement-dependent cell lysis (Terasaki et al., 1972). Dead cells were counted microscopically after eosin staining.

[6] = test system: rats; assay: Subacute toxicity, repeated intramuscular injection, rats; format: in vivo
Procedure: (§1) To illustrate this point and in preparation for clinical studies, acute and sub-acute toxicity studies were conducted in animals with Bestim according to conditions of good-laboratory practices. Bestim, prepared as a sterile lyophitized powder in ampoules, was dissolved in sterile 0.9% NaCl solution and injected intramuscularly in all experiments.
Subacute Toxicity Studies: In a second set of experiments, Bestim was administered for longer durations, accordingly:
rats: 1 mg/kg and 100 mg/kg, administered intramuscularly daily for 3 months and for 6 months

[7] = test system: mice; assay: Acute toxicity, single intramuscular dose, mice; format: in vivo
Procedure: as §1
Acute toxicity: Rodents (mice and rats) and dogs were randomized into groups of equal numbers of males and females. Animals were inspected daily for 14 days after a single dose of Bestim (intramuscular):
Body weight, overall appearance and behavior were evaluated each day and, at the end of two weeks, macroscopic and histopathological examinations of the internal organs (heart, lungs, pleural and peritoneal cavities, muscles, stomach, small and large intestine, liver, spleen, pancreas, kidneys, bladder, thyroid, brain, skin and testes/ovaries) of all animals were conducted.

[8] = test system: human subjects; assay: Side-effects in all 62 human subjects; format: in vivo; conditions: 0.1 mg i.m. per day for 5 days, 62 patients
Procedure: Preliminary studies were conducted to characterize the immunomodulatory properties of Bestim in human subjects. The protocol for the human subjects studies were reviewed and approved by a Hospital Committee (Moscow Hospital N-24) and informed consent was obtained from all subjects. All 62 patients received by intramuscular injection 0.1 mg of Bestim dissolved in 1.5 to 2.0 ml of sterile saline, one injection per day for 5 days. Patients participating in the clinical trials were from 2 groups: […]

[9] = Bestim combined with conventional methods
[10] = mice, single 5000.0 mg/kg intramuscular, 14 days

Compound: N[C@@H](CCC(=O)N[C@@H](Cc1c[nH]c2ccccc12)C(=O)O)C(=O)O [Bestim, γ-L-glutamyl-L-tryptophan]
- activity of aminopeptidases against the compound [1]: not active
- Lymphocytes ([2]; After Bestim Therapy): 1370 per mm^3
- T-Lymphocytes (CD3) ([2]; After Bestim Therapy): 75%
- T-helper lymphocytes (CD4) ([2]; After Bestim Therapy): 50%
- White blood cells ([2]; After Bestim Therapy (5 daily i.m. 0.1 mg)): 9.8 × 10^3 per mm^3
- Lymphocytes ([2]; Before Therapy): 560 per mm^3
- T-Lymphocytes (CD3) ([2]; Before Therapy): 23%
- T-helper lymphocytes (CD4) ([2]; Before Therapy): 11%
- White blood cells ([2]; Before Therapy): 10.2 × 10^3 per mm^3
- signs and symptoms of viral hepatitis [3]: ameliorates the signs and symptoms of viral hepatitis
- clinical improvement [4, 9]: more rapid clinical improvement
- duration of the patient's stay in the clinic [4, 9]: decreased the duration of the patient's stay in the clinic
- Adhesion (%) ([4]; Bestim After): 41 ± 3%
- Blast transformation PHA ([4]; Bestim After): 8935 ± 780
- Blast transformation spont ([4]; Bestim After): 541 ± 48
- CD3 (%) ([4]; Bestim After): 65 ± 5%
- CD4 (%) ([4]; Bestim After): 40 ± 3%
- CD4/CD8 ([4]; Bestim After): 1.92 ± 0.17
- CD8 (%) ([4]; Bestim After): 22 ± 2%
- CD16 (%) ([4]; Bestim After): 10.7 ± 2.1%
- CD72 (%) ([4]; Bestim After): 4.0 ± 0.5%
- Chemilumin luminol (induced) ([4]; Bestim After): 5063 ± 431
- Chemilumin luminol (spontaneous) ([4]; Bestim After): 1427 ± 252
- IL-1 production LPS induced ([4]; Bestim After): 1601 ± 284
- IL-1 production spontaneous ([4]; Bestim After): 588 ± 201
- IgA ([4]; Bestim After): 2.2 ± 0.1 g/L
- IgG ([4]; Bestim After): 9.7 ± 0.9 g/L
- IgM ([4]; Bestim After): 1.2 ± 0.1 g/L
- NBT test induced ([4]; Bestim After): 144 ± 17
- NBT test spontaneous ([4]; Bestim After): 77 ± 11
- TNF production spontaneous ([4]; Bestim After): 286 ± 27
- TNF prpoduction LPS induced ([4]; Bestim After): 338 ± 81
- Adhesion (%) ([4]; Bestim Before): 32 ± 3%
- Blast transformation PHA ([4]; Bestim Before): 4563 ± 524
- Blast transformation spont ([4]; Bestim Before): 435 ± 53
- CD3 (%) ([4]; Bestim Before): 35 ± 5%
- CD4 (%) ([4]; Bestim Before): 25 ± 4%
- CD4/CD8 ([4]; Bestim Before): 2.09 ± 0.30
- CD8 (%) ([4]; Bestim Before): 15 ± 2%
- CD16 (%) ([4]; Bestim Before): 6.2 ± 1.1%
- CD72 (%) ([4]; Bestim Before): 4.1 ± 0.6%
- Chemilumin luminol (induced) ([4]; Bestim Before): 2943 ± 307
- Chemilumin luminol (spontaneous) ([4]; Bestim Before): 1008 ± 90
- IL-1 production LPS induced ([4]; Bestim Before): 1014 ± 157
- IL-1 production spontaneous ([4]; Bestim Before): 481 ± 166
- IgA ([4]; Bestim Before): 2.4 ± 0.4 g/L
- IgG ([4]; Bestim Before): 10.6 ± 1.5 g/L
- IgM ([4]; Bestim Before): 1.2 ± 0.2 g/L
- NBT test induced ([4]; Bestim Before): 111 ± 15
- NBT test spontaneous ([4]; Bestim Before): 79 ± 12
- TNF production spontaneous ([4]; Bestim Before): 134 ± 55
- TNF prpoduction LPS induced ([4]; Bestim Before): 370 ± 64
- Alanine aminotransferase ([4]; Bestim After): 18 ± 3 IU/L
- Albumin ([4]; Bestim After): 40 ± 2 g/L
- Asparagine aminotransferase ([4]; Bestim After): 17 ± 3 IU/L
- Band neutrophils (%) ([4]; Bestim After): 7 ± 1.6%
- Bilirubin ([4]; Bestim After): 7 ± 1 μM/L
- Creatinin ([4]; Bestim After): 98 ± 4 μM/L
- Hemoglobin ([4]; Bestim After): 101 ± 4 g/L
- Mature neutrophils (%) ([4]; Bestim After): 70 ± 1%
- Monocytes (%) ([4]; Bestim After): 3.6 ± 0.7%
- Plasma protein ([4]; Bestim After): 73 ± 3 g/L
- Urea ([4]; Bestim After): 4.0 ± 0.4 mM/L
- Alanine aminotransferase ([4]; Bestim Before): 29 ± 7 IU/L
- Albumin ([4]; Bestim Before): 38 ± 2 g/L
- Asparagine aminotransferase ([4]; Bestim Before): 30 ± 9 IU/L
- Band neutrophils (%) ([4]; Bestim Before): 12 ± 2%
- Bilirubin ([4]; Bestim Before): 10 ± 1 μM/L
- Creatinin ([4]; Bestim Before): 117 ± 7 μM/L
- Hemoglobin ([4]; Bestim Before): 98 ± 4 g/L
- Mature neutrophils (%) ([4]; Bestim Before): 76 ± 2%
- Monocytes (%) ([4]; Bestim Before): 3.2 ± 0.5%
- Plasma protein ([4]; Bestim Before): 70 ± 3 g/L
- Urea ([4]; Bestim Before): 5.5 ± 0.3 mM/L
- Percent of thymocytes expressing L3T4 ([5]; 0.01 μg/kg i.p.): 40 ± 8%
- Percent of thymocytes expressing Lyt2 ([5]; 0.01 μg/kg i.p.): 45 ± 5%
- Percent of thymocytes expressing Thy-1 ([5]; 0.01 μg/kg i.p.): 95 ± 3%
- Percent of thymocytes expressing L3T4 ([5]; 0.1 μg/kg i.p.): 55 ± 1%
- Percent of thymocytes expressing Lyt2 ([5]; 0.1 μg/kg i.p.): 44 ± 2%
- Percent of thymocytes expressing Thy-1 ([5]; 0.1 μg/kg i.p.): 89 ± 2%
- Percent of thymocytes expressing L3T4 ([5]; 1 μg/kg i.p.): 54 ± 1%
- Percent of thymocytes expressing Lyt2 ([5]; 1 μg/kg i.p.): 46 ± 1%
- Percent of thymocytes expressing Thy-1 ([5]; 1 μg/kg i.p.): 91 ± 1%
- Percent of thymocytes expressing L3T4 ([5]; 10 μg/kg i.p.): 64 ± 1%
- Percent of thymocytes expressing Lyt2 ([5]; 10 μg/kg i.p.): 47 ± 2%
- Percent of thymocytes expressing Thy-1 ([5]; 10 μg/kg i.p.): 90 ± 1%
- Percent of thymocytes expressing L3T4 ([5]; 100 μg/kg i.p.): 70 ± 1%
- Percent of thymocytes expressing Lyt2 ([5]; 100 μg/kg i.p.): 48 ± 1%
- Percent of thymocytes expressing Thy-1 ([5]; 100 μg/kg i.p.): 91 ± 0%
- T-lymphocyte subset induced to differentiate in murine thymus ([5]; conclusion from Table 3): preferentially induces differentiation of a subset of T-helper lymphocytes
- morphological appearance of all organs, macroscopic and histological ([6]; rats, 1 and 100 mg/kg i.m. daily for 3 and 6 months): normal
- body weight ([6]; rats, both doses (1 and 100 mg/kg i.m. daily)): slight increase in body weight
- tested dose relative to expected doses for therapeutic trials ([6]; repeated administration): ~100 fold
- deaths [7, 10]: No deaths were observed
- general appearance, behavior, body weight, hematological, biochemical and physiological indices, macroscopic and histopathological examination of internal organs [7, 10]: all within normal limits
- tested dose relative to expected doses for therapeutic trials ([7]; single administration): ~5,000,000 fold
- side-effects [8]: No detectable side-effects
